Like-named read-outs stand apart in the source and are kept apart here.
Key:
[1] = Acute lethality and toxicity, oral administration (gastric probe); type: in vivo, Mus musculus; parameters: key to Toxic symptomatology Type: NN = no symptomatology; D = depression; conditions: in vivo, po; for mortality at 24 h / mortality at 168 h: oral; for mortality at 24 h: read-out: % mortality at following times after administration 24 h; for mortality at 168 h: read-out: % mortality at following times after administration 7 days; for LD50 at 168 h: probit method, read-out: LD50 (mg/kg with reliability limits) 7 days after treatment
Procedure: (§1) Unless otherwise specified, the research was carried out using: a) Mg-UCD capsules as such; b) the powdered contents of Mg-UCD capsules; CDCA (chenodeoxycholic acid) and UDCA (ursodeoxycholic acid) as pure substance which in all cases was partly dissolved and partly suspended under warm conditions (T = 30°C) in 10% gum arabic mucilage (so as to administer 10-40 ml of liquid per kg orally). In certain cases, namely in the experiments involving parenteral administration, the active principle of Mg-UCD, the chenodeoxycholic acid and ursodeoxycholic acid were dissolved in distilled water of slightly alkaline pH (5-10 ml/kg).
(§2) The generally acute lethality, toxicity and tolerability were determined by oral administration of the Mg-UCD (by gastric probe) in the Mus musculus, rat and dog. Animals of both sexes were used, none of which were pregnant. They were fasted for about 12 hours before treatment (but allowing them free access to water). The investigations were carried out using the Mg-UCD in powder form. Comparative investigations were carried out on the rat and Mus musculus using the active principle by endoperitoneal administration, and chenodeoxycholic acid and ursodeoxycholic acid by oral administration (using a gastric probe). Each dose was administered to 20 rats or Mus musculus (10 male and 10 female) and to eight dogs (4 male and 4 female). The animals were observed attentively during the 7 days following administration, and any lethality, toxic symptoms, disturbances, functional variations determinable with the eye, behaviour etc. were noted.
(§3) The LD50 was determined 7 days after administration using the probit method.

Mus musculus = assay: as above; type: in vivo; parameters: key to Toxic symptomatology Type: NN = no symptomatology; D = depression; conditions: oral
Procedure: as §1, §2, §3

rat = assay: as above; type: in vivo; parameters: key to Toxic symptomatology Type: NN = no symptomatology; D = depression; conditions: oral
Procedure: as §1, §2, §3

hampsters [2] = assay: Action on the formation of cholesterol calculi in the gall-bladder (cholesterol-enriched diet, 80 days); type: in vivo; conditions: female hampsters; for % animals with calculi / % animals with crystals: cholesterol-enriched diet
Procedure: (§4) The investigations were carried out on hampsters (of female sex, but excluding those in a state of pregnancy) having an initial weight of 75-90 g. They were treated for 80 days with oral administration (by gastric probe) of MG-UCD (10-20 mg/kg/day), chenodeoxycholic acid (10-20 mg/kg/day) or ursodeoxycholic acid (10-20 mg/kg/day) (Tables 4 and 5). The animals were maintained for 80 consecutive days on a Nossan feed diet for rats, enriched with cholesterol (2 mg/g of food).
(§5) Each experimental group consisted of 10 units. After 80 days, the animals were narcotised with ethyl ether, and the bile was withdrawn, together with the calculi and crystals from the gall-bladder as described by Pearlman and coll. in Gastroenterology 77, 634 (1979).

hampsters [3] = assay: Bile lipid and bile acid contents of the bile (cholesterol-enriched diet, 80 days); type: in vivo
Procedure: as §4, §5
The bile acid, phospholipid, cholesterol, cholic acid, chenodeoxycholic acid, ursodeoxycholic acid, DCA (deoxycholic acid) and LCA (lithocholic acid) contents were evaluated in the bile by the methods described by Pearlman and coll. (see above).

patients = assay: Controlled study in comparison with the free acids; tolerability in patients; type: in vivo; conditions: patients
[4] = mouse, 2000 mg/kg, M. musculus F, 2000 mg/kg
[5] = mouse, 2000 mg/kg, M. musculus M, 2000 mg/kg
[6] = mouse, 4000 mg/kg, M. musculus F, 4000 mg/kg
[7] = mouse, 4000 mg/kg, M. musculus M, 4000 mg/kg
[8] = mouse, 8000 mg/kg, M. musculus F, 8000 mg/kg
[9] = mouse, 8000 mg/kg, M. musculus M, 8000 mg/kg
[10] = rat, 2000 mg/kg, Rat F, 2000 mg/kg
[11] = rat, 2000 mg/kg, Rat M, 2000 mg/kg
[12] = rat, 4000 mg/kg, Rat F, 4000 mg/kg
[13] = rat, 4000 mg/kg, Rat M, 4000 mg/kg
[14] = rat, 8000 mg/kg, Rat F, 8000 mg/kg
[15] = rat, 8000 mg/kg, Rat M, 8000 mg/kg

Structure (SMILES): C[C@H](CCC(=O)O)[C@H]1CC[C@H]2[C@@H]3[C@@H](O)C[C@@H]4C[C@H](O)CC[C@]4(C)[C@H]3CC[C@]12C [Ursodeoxycholic acid, 17β-(1-methyl-3-carboxypropyl)-ethiocholane-3α,7β-diol]
- mortality at 24 h [1, 4]: 0%
- mortality at 168 h [1, 4]: 0%
- mortality at 24 h [1, 5]: 0%
- mortality at 168 h [1, 5]: 0%
- mortality at 24 h [1, 6]: 20%
- mortality at 168 h [1, 6]: 20%
- mortality at 24 h [1, 7]: 20%
- mortality at 168 h [1, 7]: 20%
- mortality at 24 h [1, 8]: 60%
- mortality at 168 h [1, 8]: 70%
- mortality at 24 h [1, 9]: 60%
- mortality at 168 h [1, 9]: 80%
- LD50 at 168 h ([1]; mouse, M. musculus F): 6140 mg/kg
- LD50 at 168 h ([1]; mouse, M. musculus M): 5630 mg/kg
- mortality at 24 h [1, 10]: 0%
- mortality at 168 h [1, 10]: 0%
- mortality at 24 h [1, 11]: 0%
- mortality at 168 h [1, 11]: 0%
- mortality at 24 h [1, 12]: 10%
- mortality at 168 h [1, 12]: 10%
- mortality at 24 h [1, 13]: 10%
- mortality at 168 h [1, 13]: 10%
- mortality at 24 h [1, 14]: 70%
- mortality at 168 h [1, 14]: 60%
- mortality at 24 h [1, 15]: 70%
- mortality at 168 h [1, 15]: 70%
- LD50 at 168 h ([1]; rat, Rat F): 7330 mg/kg
- LD50 at 168 h ([1]; rat, Rat M): 6490 mg/kg
- Toxic symptomatology Latency (Mus musculus; M. musculus F, 2000 mg/kg): 5-10 min
- Toxic symptomatology Type (Mus musculus; M. musculus F, 2000 mg/kg): D
- Toxic symptomatology Latency (Mus musculus; M. musculus F, 4000 mg/kg): 5-10 min
- Toxic symptomatology Type (Mus musculus; M. musculus F, 4000 mg/kg): D
- Toxic symptomatology Latency (Mus musculus; M. musculus F, 8000 mg/kg): 5-10 min
- Toxic symptomatology Type (Mus musculus; M. musculus F, 8000 mg/kg): D
- Toxic symptomatology Latency (Mus musculus; M. musculus M, 2000 mg/kg): 5-10 min
- Toxic symptomatology Type (Mus musculus; M. musculus M, 2000 mg/kg): D
- Toxic symptomatology Latency (Mus musculus; M. musculus M, 4000 mg/kg): 5-10 min
- Toxic symptomatology Type (Mus musculus; M. musculus M, 4000 mg/kg): D
- Toxic symptomatology Latency (Mus musculus; M. musculus M, 8000 mg/kg): 5-10 min
- Toxic symptomatology Type (Mus musculus; M. musculus M, 8000 mg/kg): D
- Toxic symptomatology Latency (rat; Rat F, 2000 mg/kg): 5-10 min
- Toxic symptomatology Type (rat; Rat F, 2000 mg/kg): D
- Toxic symptomatology Latency (rat; Rat F, 4000 mg/kg): 5-10 min
- Toxic symptomatology Type (rat; Rat F, 4000 mg/kg): D
- Toxic symptomatology Latency (rat; Rat F, 8000 mg/kg): 5-10 min
- Toxic symptomatology Type (rat; Rat F, 8000 mg/kg): D
- Toxic symptomatology Latency (rat; Rat M, 2000 mg/kg): 5-10 min
- Toxic symptomatology Type (rat; Rat M, 2000 mg/kg): D
- Toxic symptomatology Latency (rat; Rat M, 4000 mg/kg): 5-10 min
- Toxic symptomatology Type (rat; Rat M, 4000 mg/kg): D
- Toxic symptomatology Latency (rat; Rat M, 8000 mg/kg): 5-10 min
- Toxic symptomatology Type (rat; Rat M, 8000 mg/kg): D
- % animals with calculi (hampsters [2]; 10 mg/kg/day oral for 80 days): 40%
- % animals with crystals (hampsters [2]; 10 mg/kg/day oral for 80 days): 20%
- % animals with calculi (hampsters [2]; 20 mg/kg/day oral for 80 days): 0%
- % animals with crystals (hampsters [2]; 20 mg/kg/day oral for 80 days): 0%
- Body weight (g ± s.e.) after following days 80 (hampsters [2]; day 80, oral, 10 mg/kg/day): 141 ± 7 g
- Bile acids (expressed as molar % ± s.e.) Cheno-deoxycholic acid (hampsters [3]; 10 mg/kg/day oral for 80 days): 12.4 ± 2.6 molar %
- Bile acids (expressed as molar % ± s.e.) Cholic acid (hampsters [3]; 10 mg/kg/day oral for 80 days): 30.2 ± 4.1 molar %
- Bile acids (expressed as molar % ± s.e.) DCA (hampsters [3]; 10 mg/kg/day oral for 80 days): 12.9 ± 0.8 molar %
- Bile acids (expressed as molar % ± s.e.) LCA (hampsters [3]; 10 mg/kg/day oral for 80 days): 2.5 ± 0.1 molar %
- Bile acids (expressed as molar % ± s.e.) Urso-deoxycholic acid (hampsters [3]; 10 mg/kg/day oral for 80 days): 36.2 ± 1.4 molar %
- Bile lipids (expressed as molar % ± s.e.) Bile acids (hampsters [3]; 10 mg/kg/day oral for 80 days): 79.7 ± 4.1 molar %
- Bile lipids (expressed as molar % ± s.e.) Cholesterol (hampsters [3]; 10 mg/kg/day oral for 80 days): 7.4 ± 0.4 molar %
- Bile lipids (expressed as molar % ± s.e.) Phospho-lipids (hampsters [3]; 10 mg/kg/day oral for 80 days): 15.5 ± 1.0 molar %
- Bile acids (expressed as molar % ± s.e.) Cheno-deoxycholic acid (hampsters [3]; 20 mg/kg/day oral for 80 days): 4.5 ± 0.9 molar %
- Bile acids (expressed as molar % ± s.e.) Cholic acid (hampsters [3]; 20 mg/kg/day oral for 80 days): 17.9 ± 2.1 molar %
- Bile acids (expressed as molar % ± s.e.) DCA (hampsters [3]; 20 mg/kg/day oral for 80 days): 10.5 ± 0.6 molar %
- Bile acids (expressed as molar % ± s.e.) LCA (hampsters [3]; 20 mg/kg/day oral for 80 days): 3.9 ± 0.2 molar %
- Bile acids (expressed as molar % ± s.e.) Urso-deoxycholic acid (hampsters [3]; 20 mg/kg/day oral for 80 days): 72.8 ± 4.7 molar %
- Bile lipids (expressed as molar % ± s.e.) Bile acids (hampsters [3]; 20 mg/kg/day oral for 80 days): 81.3 ± 4.3 molar %
- Bile lipids (expressed as molar % ± s.e.) Cholesterol (hampsters [3]; 20 mg/kg/day oral for 80 days): 5.7 ± 0.2 molar %
- Bile lipids (expressed as molar % ± s.e.) Phospho-lipids (hampsters [3]; 20 mg/kg/day oral for 80 days): 15.8 ± 1.0 molar %
- side effects (patients): tends to cause constipation

Source: patent EP0092073A1, “Magnesium salt of chenodeoxycholic acid and ursodeoxycholic acid, the process for its preparation, and therapeutic compositions which contain it as active principle” (SCHWARZ ITALIA S.p.A., priority 1982, dated 1983)
